Values of other authors as cited in article PMC12675387, “Receptor interaction profiles of 4-alkoxy-2,6-dimethoxyphenethylamines (Ψ derivatives) and related amphetamines” (Frontiers in Pharmacology, 2025).
Like-named read-outs stand apart in the source and are kept apart here.

What was measured:
[1] = target: T1, human 5-HT2A receptor (Homo sapiens, UniProt P28223); settings: cited from earlier work; for h5-HT2A activation efficacy Emax ± SD: reference substances, ref Luethi et al., 2018; for type of agonism at the 5-HT2A receptor: ref Kolaczynska et al., 2019
T1 construct: expressed in transfected cells; host or cells: NIH-3T3 mouse embryonic fibroblasts

[2] = target: rTAAR1 (Rattus norvegicus, UniProt Q923Y9); parameters: expressed in transfected cells; host or cells: HEK 293 cells (membrane preparations); settings: cited from earlier work
[3] = target: h5-HT2A receptor (Homo sapiens, UniProt P28223); parameters: expressed in transfected cells; host or cells: HEK 293 cells (membrane preparations); settings: ref Kolaczynska et al., 2022; cited from earlier work
[4] = cited from earlier work; for fold increase in human potency from mescaline: ref Kolaczynska et al., 2022; for duration of effects in humans / psychoactive dose in humans: anecdotal
[5] = target: T2, human 5-HT2B receptor (Homo sapiens, UniProt P41595); parameters: method as in Luethi et al., 2018; settings: reference substances; ref Luethi et al., 2018; cited from earlier work
T2 construct: expressed in transfected cells; host or cells: HEK 293 cells

[6] = target: hDAT (Homo sapiens, UniProt Q01959); parameters: expressed in transfected cells; host or cells: HEK 293 cells (membrane preparations); method as in Luethi et al. (2019b); settings: reference substance; ref Luethi et al. (2019b); read-out: hDAT Ki ± SD; cited from earlier work
[7] = target: mTAAR1 (Mus musculus, UniProt Q923Y8); parameters: expressed in transfected cells; host or cells: HEK 293 cells (membrane preparations); method as in Luethi et al. (2019b); settings: reference substance; ref Luethi et al. (2019b); read-out: mTAAR1 Ki ± SD; cited from earlier work
[8] = target: hSERT (Homo sapiens, UniProt P31645); parameters: expressed in transfected cells; host or cells: HEK 293 cells (membrane preparations); method as in Luethi et al. (2019b); settings: reference substance; ref Luethi et al. (2019b); read-out: hSERT Ki ± SD; cited from earlier work
[9] = target: T3, hα2A adrenergic receptor (Homo sapiens, UniProt P08913); parameters: expressed in transfected cells; host or cells: Chinese hamster lung cells (membrane preparations); method as in Luethi et al. (2019b); settings: reference substance; ref Luethi et al. (2019b); read-out: hα2A Ki ± SD; cited from earlier work
T3 sequence (P08913 1-465): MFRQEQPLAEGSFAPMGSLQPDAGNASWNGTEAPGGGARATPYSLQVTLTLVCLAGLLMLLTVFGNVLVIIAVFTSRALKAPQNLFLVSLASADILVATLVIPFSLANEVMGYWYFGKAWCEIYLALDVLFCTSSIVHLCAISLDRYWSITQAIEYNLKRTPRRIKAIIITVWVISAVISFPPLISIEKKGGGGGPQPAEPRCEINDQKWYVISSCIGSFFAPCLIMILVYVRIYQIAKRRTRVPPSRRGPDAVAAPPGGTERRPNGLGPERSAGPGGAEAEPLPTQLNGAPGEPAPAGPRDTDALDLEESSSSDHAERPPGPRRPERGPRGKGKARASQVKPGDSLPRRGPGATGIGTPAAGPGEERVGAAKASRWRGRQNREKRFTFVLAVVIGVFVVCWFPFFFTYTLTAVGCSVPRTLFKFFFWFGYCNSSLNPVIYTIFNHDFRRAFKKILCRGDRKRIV

[10] = target: hD2 receptor (Homo sapiens, UniProt P14416); parameters: expressed in transfected cells; host or cells: HEK 293 cells (membrane preparations); method as in Luethi et al. (2019b); settings: reference substance; ref Luethi et al. (2019b); read-out: hD2 Ki ± SD; cited from earlier work
[11] = target: T4, hα1A adrenergic receptor (Homo sapiens, UniProt P35348); parameters: expressed in transfected cells; host or cells: Chinese hamster ovary cells (membrane preparations); method as in Luethi et al. (2019b); settings: reference substance; ref Luethi et al. (2019b); read-out: hα1A Ki ± SD; cited from earlier work
T4 sequence (P35348 1-466): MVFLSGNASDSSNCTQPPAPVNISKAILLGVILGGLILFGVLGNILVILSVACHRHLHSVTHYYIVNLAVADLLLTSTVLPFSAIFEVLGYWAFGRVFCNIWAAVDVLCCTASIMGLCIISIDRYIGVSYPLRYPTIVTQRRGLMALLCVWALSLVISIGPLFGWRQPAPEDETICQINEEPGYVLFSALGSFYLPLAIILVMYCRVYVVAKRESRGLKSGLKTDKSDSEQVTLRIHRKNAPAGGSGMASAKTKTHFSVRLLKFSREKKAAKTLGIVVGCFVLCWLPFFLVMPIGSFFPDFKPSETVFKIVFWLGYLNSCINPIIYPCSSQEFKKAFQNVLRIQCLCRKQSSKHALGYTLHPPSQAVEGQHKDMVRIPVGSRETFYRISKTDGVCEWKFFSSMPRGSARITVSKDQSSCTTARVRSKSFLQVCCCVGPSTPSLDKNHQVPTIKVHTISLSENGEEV

[12] = target: hNET (Homo sapiens, UniProt P23975); parameters: expressed in transfected cells; host or cells: HEK 293 cells (membrane preparations); method as in Luethi et al. (2019b); settings: reference substance; ref Luethi et al. (2019b); read-out: hNET Ki ± SD; cited from earlier work
hNET, sequence (P23975 whole entry): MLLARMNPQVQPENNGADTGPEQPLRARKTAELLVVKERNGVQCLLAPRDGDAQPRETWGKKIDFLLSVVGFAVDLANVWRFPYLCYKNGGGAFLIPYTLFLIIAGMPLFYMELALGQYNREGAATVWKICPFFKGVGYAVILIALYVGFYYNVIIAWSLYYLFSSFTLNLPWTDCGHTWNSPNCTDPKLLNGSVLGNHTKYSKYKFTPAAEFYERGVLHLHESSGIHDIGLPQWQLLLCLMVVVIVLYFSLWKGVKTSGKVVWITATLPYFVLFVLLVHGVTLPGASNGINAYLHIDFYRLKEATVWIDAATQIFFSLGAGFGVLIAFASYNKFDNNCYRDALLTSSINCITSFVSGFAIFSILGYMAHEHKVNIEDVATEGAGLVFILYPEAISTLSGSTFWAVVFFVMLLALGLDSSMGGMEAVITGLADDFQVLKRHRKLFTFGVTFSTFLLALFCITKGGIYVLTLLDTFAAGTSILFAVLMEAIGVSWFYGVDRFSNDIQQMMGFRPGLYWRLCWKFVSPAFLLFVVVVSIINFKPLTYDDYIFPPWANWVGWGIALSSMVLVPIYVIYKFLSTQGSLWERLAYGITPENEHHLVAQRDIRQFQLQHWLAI

T1 sequence (P28223 whole entry): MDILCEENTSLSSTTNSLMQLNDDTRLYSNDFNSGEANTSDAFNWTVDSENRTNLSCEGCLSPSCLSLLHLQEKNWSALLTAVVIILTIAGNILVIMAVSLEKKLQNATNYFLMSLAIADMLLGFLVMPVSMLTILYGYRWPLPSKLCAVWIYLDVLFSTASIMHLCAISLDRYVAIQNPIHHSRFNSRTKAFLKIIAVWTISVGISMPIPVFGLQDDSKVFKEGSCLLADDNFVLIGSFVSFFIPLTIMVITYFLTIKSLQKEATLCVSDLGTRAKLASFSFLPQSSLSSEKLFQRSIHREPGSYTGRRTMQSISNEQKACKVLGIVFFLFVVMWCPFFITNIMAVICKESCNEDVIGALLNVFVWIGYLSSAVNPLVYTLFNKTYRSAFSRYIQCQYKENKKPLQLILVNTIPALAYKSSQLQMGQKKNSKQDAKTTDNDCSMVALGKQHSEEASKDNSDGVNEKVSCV
rTAAR1, sequence (Q923Y9 whole entry): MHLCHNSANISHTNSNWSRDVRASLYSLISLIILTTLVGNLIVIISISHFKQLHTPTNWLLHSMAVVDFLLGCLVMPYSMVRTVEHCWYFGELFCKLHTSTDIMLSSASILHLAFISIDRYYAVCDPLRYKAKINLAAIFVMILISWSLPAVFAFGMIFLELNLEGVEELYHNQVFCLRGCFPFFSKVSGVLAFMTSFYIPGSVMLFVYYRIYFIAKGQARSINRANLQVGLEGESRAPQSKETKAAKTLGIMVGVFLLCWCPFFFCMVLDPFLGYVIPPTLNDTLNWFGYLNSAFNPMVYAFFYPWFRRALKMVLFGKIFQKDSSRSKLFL
h5-HT2A receptor, sequence (P28223 whole entry): as the sequence (P28223 whole entry) above
hSERT, sequence (P31645 whole entry): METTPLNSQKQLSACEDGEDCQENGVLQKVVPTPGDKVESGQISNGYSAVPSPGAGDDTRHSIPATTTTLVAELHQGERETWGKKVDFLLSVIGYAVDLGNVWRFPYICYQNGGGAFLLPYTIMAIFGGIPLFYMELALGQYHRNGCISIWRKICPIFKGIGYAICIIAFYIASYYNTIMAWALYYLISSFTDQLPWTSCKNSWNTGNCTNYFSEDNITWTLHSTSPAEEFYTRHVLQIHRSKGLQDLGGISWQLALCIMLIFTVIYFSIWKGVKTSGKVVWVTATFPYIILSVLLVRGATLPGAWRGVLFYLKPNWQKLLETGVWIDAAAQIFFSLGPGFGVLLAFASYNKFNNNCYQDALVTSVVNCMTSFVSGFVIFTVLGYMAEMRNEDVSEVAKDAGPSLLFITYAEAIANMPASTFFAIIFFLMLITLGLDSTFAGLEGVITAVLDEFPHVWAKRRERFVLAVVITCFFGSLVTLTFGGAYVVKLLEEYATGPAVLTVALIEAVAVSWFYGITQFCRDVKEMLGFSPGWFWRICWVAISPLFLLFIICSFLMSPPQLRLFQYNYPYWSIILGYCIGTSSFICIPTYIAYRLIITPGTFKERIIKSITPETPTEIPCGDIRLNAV
hDAT, sequence (Q01959 whole entry): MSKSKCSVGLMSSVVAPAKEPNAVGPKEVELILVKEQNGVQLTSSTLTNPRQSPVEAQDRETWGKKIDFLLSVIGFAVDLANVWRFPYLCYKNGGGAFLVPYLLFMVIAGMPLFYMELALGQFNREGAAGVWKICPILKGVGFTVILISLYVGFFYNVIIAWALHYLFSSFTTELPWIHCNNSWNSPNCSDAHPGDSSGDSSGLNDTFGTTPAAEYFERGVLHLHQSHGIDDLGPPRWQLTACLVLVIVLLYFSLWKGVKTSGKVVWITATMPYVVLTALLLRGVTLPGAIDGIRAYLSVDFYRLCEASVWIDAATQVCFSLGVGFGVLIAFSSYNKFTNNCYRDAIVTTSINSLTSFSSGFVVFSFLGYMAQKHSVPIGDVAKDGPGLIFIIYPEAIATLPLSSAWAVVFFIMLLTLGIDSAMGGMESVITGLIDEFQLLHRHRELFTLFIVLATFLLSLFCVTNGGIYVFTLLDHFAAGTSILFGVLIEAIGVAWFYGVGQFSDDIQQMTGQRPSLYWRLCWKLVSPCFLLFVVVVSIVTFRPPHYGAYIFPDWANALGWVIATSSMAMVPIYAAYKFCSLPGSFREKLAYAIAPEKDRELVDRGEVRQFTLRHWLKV
T2 sequence (P41595 whole entry): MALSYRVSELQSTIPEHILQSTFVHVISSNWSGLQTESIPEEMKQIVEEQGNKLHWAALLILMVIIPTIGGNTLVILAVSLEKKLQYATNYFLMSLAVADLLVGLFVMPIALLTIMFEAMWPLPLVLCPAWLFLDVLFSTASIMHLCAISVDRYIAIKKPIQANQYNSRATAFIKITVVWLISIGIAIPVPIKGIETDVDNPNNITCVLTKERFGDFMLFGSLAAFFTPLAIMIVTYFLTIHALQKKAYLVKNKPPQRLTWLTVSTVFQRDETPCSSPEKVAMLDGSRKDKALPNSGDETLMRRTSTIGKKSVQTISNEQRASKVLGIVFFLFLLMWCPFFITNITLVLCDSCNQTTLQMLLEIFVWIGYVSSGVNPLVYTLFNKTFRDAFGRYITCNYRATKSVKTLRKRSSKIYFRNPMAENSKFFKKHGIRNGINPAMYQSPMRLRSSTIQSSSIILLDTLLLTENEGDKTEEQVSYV
mTAAR1, sequence (Q923Y8 whole entry): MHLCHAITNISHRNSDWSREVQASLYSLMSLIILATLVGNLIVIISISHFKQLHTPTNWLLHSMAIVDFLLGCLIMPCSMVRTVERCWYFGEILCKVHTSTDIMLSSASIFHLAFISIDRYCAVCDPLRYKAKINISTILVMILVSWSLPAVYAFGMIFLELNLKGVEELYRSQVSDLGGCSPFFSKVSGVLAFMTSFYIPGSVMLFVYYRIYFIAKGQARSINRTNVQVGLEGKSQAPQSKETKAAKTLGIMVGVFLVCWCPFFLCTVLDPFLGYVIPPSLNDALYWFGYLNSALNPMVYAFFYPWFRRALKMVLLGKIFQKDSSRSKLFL
hD2 receptor, sequence (P14416 whole entry): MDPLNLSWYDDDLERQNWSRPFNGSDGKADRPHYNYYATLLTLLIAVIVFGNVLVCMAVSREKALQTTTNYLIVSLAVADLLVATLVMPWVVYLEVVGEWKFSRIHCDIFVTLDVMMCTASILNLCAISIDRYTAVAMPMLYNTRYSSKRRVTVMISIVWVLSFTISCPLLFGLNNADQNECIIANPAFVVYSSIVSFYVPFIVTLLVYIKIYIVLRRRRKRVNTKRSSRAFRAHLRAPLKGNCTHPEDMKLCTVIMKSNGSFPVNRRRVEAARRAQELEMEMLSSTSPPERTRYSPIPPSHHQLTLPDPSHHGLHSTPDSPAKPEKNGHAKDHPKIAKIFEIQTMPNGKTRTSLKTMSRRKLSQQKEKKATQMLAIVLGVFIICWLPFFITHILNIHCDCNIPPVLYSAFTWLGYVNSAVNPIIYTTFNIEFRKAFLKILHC

## CCN(CC)C(=O)[C@@H]1C=C2c3cccc4[nH]cc(c34)C[C@H]2N(C)C1 [LSD, lysergic acid diethylamide]
[1]
  h5-HT2A activation efficacy Emax ± SD: 73 ± 2%

## C=CCOc1cc(OC)c(CC(C)N)cc1OC (stereo not shown) [MALM]
[1]
  type of agonism at the 5-HT2A receptor: full agonists

## CCOc1cc(OC)c(CCN)cc1OC [2C-O-2]
[2]; read-out: TAAR1 Ki (rat and mouse TAAR1 as worded; compared with the rat value of Ψ-2C-O-2), 2,4,5-trisubstituted derivative, ref Kolaczynska et al., 2019
  Ki: 0.67 µM

## COc1cc(CCN)cc(OC)c1OC(F)(F)F [trifluoromescaline]
[3]
  fold increase in receptor affinity (Ki values) from mescaline: 33 fold
[4]
  fold increase in human potency from mescaline: > 9 fold

## C=C(C)COc1cc(OC)c(CC(C)N)cc1OC (stereo not shown) [MMALM]
[1]
  type of agonism at the 5-HT2A receptor: full agonists

## COc1cc(C)cc(OC)c1CC(C)N (stereo not shown) [Ψ-DOM, 2,6-dimethoxy-4-methylamphetamine]
[4]; ref Shulgin and Shulgin, 1991
  duration of effects in humans: 6 to 8 h
  psychoactive dose in humans: 15 to 25 mg

## COc1cc(CCN)c(OC)cc1Br [2C-B, 4-bromo-2,5-dimethoxyphenethylamine]
[1]
  h5-HT2A activation efficacy Emax ± SD: 92 ± 8%
[5]
  h5-HT2B activation efficacy Emax ± SD: 52 ± 26%

## CNC(C)Cc1ccc2c(c1)OCO2 (stereo not shown) [MDMA]
[6]
  Ki: > 8.5 µM
[7]
  Ki: 3.1 µM
[8]
  Ki: > 7.5 µM
[9]
  Ki: 4.6 µM
[10]
  Ki: > 13 µM
[2]; reference substance, ref Luethi et al. (2019b), read-out: rTAAR1 Ki ± SD
  Ki: 0.25 ± 0.01 µM
[11]
  Ki: 6.9 µM
[12]
  Ki: > 8.7 µM

## COc1cc(SC(C)C)c(OC)cc1CCN [2C-T-4]
[4]; ref Shulgin and Shulgin, 1991
  duration of effects in humans: 12 to 18 h
  psychoactive dose in humans: 8 to 20 mg

## COc1cc(SC(C)C)cc(OC)c1CCN [Ψ-2C-T-4, 2,6-dimethoxy-4-isopropylthiophenethylamine]
[4]; ref Shulgin and Shulgin, 1991
  psychoactive dose in humans: > 12 mg
[4]; highest dose evaluated (12 mg), anecdotal report, ref Shulgin and Shulgin, 1991
  activity in humans: inactive

## COc1cc(CCN)cc(OC)c1OC(F)F [DFM]
[3]
  fold increase in receptor affinity (Ki values) from mescaline: 3 fold
[4]
  fold increase in human potency from mescaline: 4 fold

## COc1cc(CC(C)N)c(OC)cc1C (stereo not shown) [DOM]
[4]; ref Shulgin and Shulgin, 1991
  duration of effects in humans: 14 to 20 h
  psychoactive dose in humans: 3 to 10 mg

## COc1cc(OC)c(OC)cc1CC(C)N (stereo not shown) [TMA-2]
[4]; ref Shulgin and Shulgin, 1991
  duration of effects in humans: 8 to 12 h
  psychoactive dose in humans: 20 to 40 mg
